Data reported in US20020035061A1, “COMPOSITIONS AND METHODS FOR TREATING INFECTIONS USING CATIONIC PEPTIDES ALONE OR IN COMBINATION WITH ANTIBIOTICS” (priority 1996, published 2002).
Where two headings read alike, the source gives them in different places.

Columns and labels:
Assay type in all cases: cell-based
[1] = system: S. epidermidis
[2] = system: S. marcescens
[3] = system: S. maltophilia
[4] = system: K. pneumoniae
[5] = system: E. faecalis
[6] = system: P. aeruginosa
[7] = system: A. calcoaceticus
[8] = system: E. cloacae
[9] = system: S. aureus
[10] = system: E. coli

Sequence | MIC ([1]; S. epidermidis SE010) | MIC ([2]; S. marcescens SMS003) | MIC ([3]; S. maltophilia SMA002) | MIC ([4]; K. pneumoniae KP001) | MIC ([5]; E. faecalis EFS001) | MIC ([5]; E. faecalis EFS008) | MIC ([6]; P. aeruginosa PA004) | MIC ([7]; A. calcoaceticus AC002) | MIC ([8]; E. cloacae ECL007) | MIC ([9]; S. aureus SA014) | MIC ([9]; S. aureus SA093) | MIC ([10]; E. coli ECO005) | also measured
ILRWPWRRWPWRRK [MBI 11B19CN] | 4 µg/mL | >128 µg/mL | 32 µg/mL | 64 µg/mL | 2 µg/mL | 32 µg/mL | 128 µg/mL | 4 µg/mL | >128 µg/mL | 4 µg/mL | 2 µg/mL | 8 µg/mL | –
LWPWWPWRRK [MBI 11G24CN] | 4 µg/mL | >128 µg/mL | 32 µg/mL | 16 µg/mL | 2 µg/mL | 8 µg/mL | 128 µg/mL | 4 µg/mL | >128 µg/mL | 2 µg/mL | 1 µg/mL | 16 µg/mL | –
KRRWPWWPWRLI [MBI 11B7CNR] | – | – | – | – | – | – | – | – | – | – | – | – | MIC ([1]; S. epidermidis strain SE010): 4 µg/mL; MIC ([2]; S. marcescens strain SMS003): >128 µg/mL; MIC ([3]; S. maltophilia strain SMA002): 32 µg/mL; MIC ([4]; K. pneumoniae strain KP001): 8 µg/mL; MIC ([5]; E. faecalis strain EFS001): 4 µg/mL; MIC ([6]; P. aeruginosa strain PA004): 64 µg/mL; MIC ([7]; A. calcoaceticus strain AC002): 4 µg/mL; MIC ([8]; E. cloacae strain ECL007): 64 µg/mL; MIC ([9]; S. aureus strain SA093): 2 µg/mL; MIC ([10]; E. coli strain ECO005): 8 µg/mL
LRWPWWPW [MBI 11G26CN] | 4 µg/mL | >128 µg/mL | 128 µg/mL | 32 µg/mL | 2 µg/mL | 4 µg/mL | >128 µg/mL | 2 µg/mL | >128 µg/mL | 4 µg/mL | 0.5 µg/mL | 32 µg/mL | –
ILRWPWWAWRRK [MBI 11H08CN] | 4 µg/mL | >128 µg/mL | 32 µg/mL | 32 µg/mL | 2 µg/mL | 8 µg/mL | >128 µg/mL | 4 µg/mL | >128 µg/mL | 4 µg/mL | 1 µg/mL | 8 µg/mL | –
WWRWPWWPWRRK [MBI 11A10CN] | – | – | – | – | – | – | – | – | – | – | – | – | MIC ([1]; S. epidermidis strain SE010): 4 µg/mL; MIC ([2]; S. marcescens strain SMS003): >128 µg/mL; MIC ([3]; S. maltophilia strain SMA002): 32 µg/mL; MIC ([4]; K. pneumoniae strain KP001): 16 µg/mL; MIC ([5]; E. faecalis strain EFS001): 4 µg/mL; MIC ([5]; E. faecalis strain EFS008): 16 µg/mL; MIC ([6]; P. aeruginosa strain PA004): 64 µg/mL; MIC ([7]; A. calcoaceticus strain AC002): 4 µg/mL; MIC ([8]; E. cloacae strain ECL007): 64 µg/mL; MIC ([9]; S. aureus strain SA014): 4 µg/mL; MIC ([9]; S. aureus strain SA093): 2 µg/mL; MIC ([10]; E. coli strain ECO005): 16 µg/mL
ILRWAWWPWRRK [MBI 11H05CN] | 4 µg/mL | >128 µg/mL | 16 µg/mL | 8 µg/mL | 2 µg/mL | 8 µg/mL | 128 µg/mL | 4 µg/mL | >128 µg/mL | 2 µg/mL | 1 µg/mL | 8 µg/mL | –
KRRWPWWPWKKLI [MBI 11CNR] | 4 µg/mL | 128 µg/mL | 32 µg/mL | 4 µg/mL | 4 µg/mL | – | 32 µg/mL | 4 µg/mL | >128 µg/mL | – | 4 µg/mL | 8 µg/mL | –
LRWWWPWRRK [MBI 11G25CN] | 2 µg/mL | >128 µg/mL | 32 µg/mL | 16 µg/mL | 2 µg/mL | 16 µg/mL | 64 µg/mL | 2 µg/mL | >128 µg/mL | 2 µg/mL | 1 µg/mL | 8 µg/mL | –
ILRWPWWPWARK [MBI 11H10CN] | 4 µg/mL | >128 µg/mL | 64 µg/mL | 16 µg/mL | 2 µg/mL | 8 µg/mL | >128 µg/mL | 4 µg/mL | >128 µg/mL | 4 µg/mL | 1 µg/mL | 16 µg/mL | –
ILRWPWWPWRRA [MBI 11H12CN] | 4 µg/mL | >128 µg/mL | 64 µg/mL | 16 µg/mL | 2 µg/mL | 8 µg/mL | >128 µg/mL | 4 µg/mL | >128 µg/mL | 2 µg/mL | 1 µg/mL | 16 µg/mL | –
ILRWPWWPARRK [MBI 11H09CN] | 16 µg/mL | >128 µg/mL | 64 µg/mL | 64 µg/mL | 4 µg/mL | 64 µg/mL | >128 µg/mL | 4 µg/mL | >128 µg/mL | 8 µg/mL | 2 µg/mL | 32 µg/mL | –
ILRYVYYVYRRK [MBI 11A8CN] | – | – | – | – | – | – | – | – | – | – | – | – | MIC ([1]; S. epidermidis strain SE010): 16 µg/mL; MIC ([2]; S. marcescens strain SMS003): >128 µg/mL; MIC ([3]; S. maltophilia strain SMA002): 32 µg/mL; MIC ([4]; K. pneumoniae strain KP001): 128 µg/mL; MIC ([5]; E. faecalis strain EFS001): 4 µg/mL; MIC ([6]; P. aeruginosa strain PA004): >128 µg/mL; MIC ([7]; A. calcoaceticus strain AC002): 8 µg/mL; MIC ([8]; E. cloacae strain ECL007): >128 µg/mL; MIC ([9]; S. aureus strain SA093): 1 µg/mL; MIC ([10]; E. coli strain ECO005): 32 µg/mL
ILAWPWWPWRRK [MBI 11H03CN] | 4 µg/mL | >128 µg/mL | 64 µg/mL | 16 µg/mL | 2 µg/mL | 8 µg/mL | >128 µg/mL | 8 µg/mL | >128 µg/mL | 2 µg/mL | 2 µg/mL | 16 µg/mL | –
IARWPWWPWRRK [MBI 11H02CN] | 4 µg/mL | >128 µg/mL | 64 µg/mL | 32 µg/mL | 2 µg/mL | 16 µg/mL | >128 µg/mL | 4 µg/mL | >128 µg/mL | 2 µg/mL | 1 µg/mL | 16 µg/mL | –
ILRAPWWPWRRK [MBI 11H04CN] | 16 µg/mL | >128 µg/mL | >128 µg/mL | 64 µg/mL | 2 µg/mL | 8 µg/mL | >128 µg/mL | 8 µg/mL | >128 µg/mL | 4 µg/mL | 2 µg/mL | 32 µg/mL | –
